In patent US9067967B2, “Peptides useful in the treatment and care of the skin and mucous membranes and their use in cosmetic or pharmaceutical compositions” (LIPOTEC, S.A., priority 2011, dated 2015):

How the values were obtained:
Format in all cases: cell-based
human AQP-3 promoter = assay: Modulation of the human AQP-3 promoter activity (luciferase reporter in stably transfected keratinocytes); details: peptide at 0.5 mg/mL, 16-24 hours; normalized to negative control (carrier = 100%)
Method: The modulation capacity of the promoter of the AQP-3 gene was evaluated in a cell line of keratinocytes stably transfected with the luciferase gene under the regulation of the human AQP-3 promoter. 20,000 to 30,000 cells per well were seeded and incubated for 24 hours in DMEM medium, after which the peptides of the invention were added at 0.5 mg/mL and were incubated for another 16-24 hours. The DMEM medium (carrier) was used as a negative control. The measurement of the promoter's activity was carried out using the Steady-Glo® Luciferase Assay System (PROMEGA) kit following the manufacturer's instructions. The luminescence values were read on a luminometer at 630 nm and the activity of the promoter was determined, which was normalized with regards to the values of the negative control.

[1] = system: human dermal fibroblasts (HDFa); assay: Stimulation of collagen type I synthesis in human dermal fibroblasts (ELISA); details: 48 hours, carrier = 0%
Method: The ability of the peptides of the invention to stimulate collagen type I synthesis in human dermal fibroblasts (HDFa, Cascade Biologics) was evaluated in culture using ELISA (enzyme-linked immunosorbent assay). The fibroblasts grew in M106 supplemented with specific factors for their growth. 50,000 cells per well were seeded and incubated at 37° C., 5% CO2, with humidified air. After 24 hours the peptides of the invention were added, and were incubated for another 48 hours, after which the supernatants were collected.
96-well plates were covered with 50 μL of a standard bovine collagen type I (Sigma) or with the previously collected supernatants. The collagen was absorbed onto the wells throughout the night at 4° C. in a humidified atmosphere. The plates were washed three times and were blocked for one hour with 3% bovine serum albumin, after which they were incubated with a primary anti-collagen type I anti-body (Sigma) for 2 hours. Subsequently, the secondary antibody, goat anti-mouse IgG-HRP (Molecular Probes) was added. The plates were incubated with the […] for 30 minutes under stirring and the reaction was stopped by adding 3 M of H2SO4. The absorbance was measured at 490 nm in a plate reader (Genios, Tecan) and the concentration of collagen was determined by comparing it with a standard linear regression line.

[2] = system: human epidermal keratinocytes; assay: Proliferation of human epidermal keratinocytes (calcein-AM fluorescence); details: 24 hours, carrier = 0%
Method: Cell proliferation was evaluated by a fluorescence-based cell viability method, in which the live cells are distinguished from the dead cells by the enzymatic conversion of calcein-AM to its fluorescent form.
Human keratinocytes were cultivated in DMEM supplemented with fetal bovine serum (FBS, Cultek) until confluence is achieved. The cells were then separated using trypsin and were seeded in 96-well plates. After 24 hours of incubation in DMEM at 37° C. in a humidified atmosphere at 5% CO2 a fresh medium was added with different concentrations of the product of the invention. Cells treated with DMEM as a negative control were used. The cells were incubated for another 24 hours under the same conditions and the medium was substituted by 100 μl of calcein-AM (Molecular Probes) at 0.4 μM diluted in phosphate buffered saline (PBS, Sigma). After 30 minutes of incubation at 37° C. the fluorescence was measured at excitation 485 nm 1 and emission 530 nm (λem) in a plate reader (Genios Tecan). The total growth percentage was calculated as T/C×100 wherein T is the fluorescence of the wells treated with the peptides of the invention and C the fluorescence of the control wells treated with DMEM.

AQP-3 gene = assay: Relative quantification of AQP-3 mRNA by quantitative real time PCR in human epidermal keratinocytes; details: 0.1 mg/mL, 16-24 hours; normalized to untreated cells (carrier = 100%)
Method: The expression levels of the gene AQP-3 were measured by PCR in quantitative real time. A human keratinocyte cell line from adult skin was incubated at a density of 10,000 to 20,000 cells per well in EpiLife™ medium (Cascade Biologics) for 3-5 days and they were subsequently incubated with the peptides of the invention for another 16-24 hours, after which the cells were lysed and the RNA was extracted. The PCR was carried out in quantitative real time using the Taqman® Gene Expression Cells-to-CT (Applied Biosystems) kit according to the manufacturer's instructions and with the appropriate probes (TaqMan® Hs00185020_m1 probe for the AQP-3 gene and Taqman® Hs99999901_s1 probe for the eukaryotic ribosomal subunit 18S, the endogenous control of expression) and the values were normalized with regards to the basal levels of AQP-3 mRNA of the untreated cells (carrier).

Activity of the AQP-3 promoter (%) (human AQP-3 promoter) | Substance | other results
124% | Ac-L-Ser-L-Pro-L-Ala-L-Glu-Gly-Gly-NH2 (Ac-SPAEGG-NH2) [Ac-SEQ ID 6-NH2] | 
136% | Ac-L-Tyr-L-Val-L-Ala-Gly-Gly-L-His-NH2 (Ac-YVAGGH-NH2) [Ac-SEQ ID 34-NH2] | 
112% | Ac-L-Tyr-L-Val-L-Ala-L-Glu-Gly-Gly-NH2 (Ac-YVAEGG-NH2) [Ac-SEQ ID 56-NH2] | 
129% | Ac-L-Tyr-L-Val-L-Ala-Gly-Gly-Gly-NH2 (Ac-YVAGGG-NH2) [Ac-SEQ ID 33-NH2] | 
112% | Ac-L-Ser-L-Val-L-Ala-L-Glu-Gly-L-His-NH2 (Ac-SVAEGH-NH2) [Ac-SEQ ID 58-NH2] | 
152% | Ac-L-Ser-L-Pro-L-Ala-Gly-Gly-L-Gln-NH2 (Ac-SPAGGQ-NH2) [Ac-SEQ ID 8-NH2] | 
115% | Ac-L-Ser-L-Val-L-Ala-Gly-Gly-L-Gln-NH2 (Ac-SVAGGQ-NH2) [Ac-SEQ ID 50-NH2] | 
135% | Ac-L-Ser-L-Pro-L-Ala-Gly-Gly-L-Pro-NH2 (Ac-SPAGGP-NH2) [Ac-SEQ ID 10-NH2] | % Increase in collagen type I synthesis ([1]; 0.01 mg/mL): 36%; % Increase in collagen type I synthesis ([1]; 0.1 mg/mL): 58%; % Stimulation of proliferation ([2]; 0.16 mg/mL): 24%; % Stimulation of proliferation ([2]; 0.62 mg/mL): 28%; % Stimulation of proliferation ([2]; 2.50 mg/mL): 31%; % relative quantity AQP-3 mRNA (AQP-3 gene): 200%
121% | Ac-L-Tyr-L-Pro-L-Ala-L-Val-Gly-L-His-NH2 (Ac-YPAVGH-NH2) [Ac-SEQ ID 30-NH2] | 
126% | Ac-L-Ser-L-Pro-L-Ala-L-Val-Gly-Gly-NH2 (Ac-SPAVGG-NH2) [Ac-SEQ ID 40-NH2] | 
120% | Ac-L-Tyr-L-Val-L-Ala-L-Val-Gly-Gly-NH2 (Ac-YVAVGG-NH2) [Ac-SEQ ID 36-NH2] | 
122% | Ac-L-Tyr-L-Pro-L-Ala-Gly-Gly-L-Gln-NH2 (Ac-YPAGGQ-NH2) [Ac-SEQ ID 43-NH2] | 
125% | Ac-L-Tyr-L-Pro-L-Ala-L-Val-Gly-Gly-NH2 (Ac-YPAVGG-NH2) [Ac-SEQ ID 29-NH2] | 
129% | Ac-L-Tyr-L-Pro-L-Ala-L-Val-Gly-L-Gln-NH2 (Ac-YPAVGQ-NH2) [Ac-SEQ ID 28-NH2] | 
120% | Ac-L-Tyr-L-Val-L-Ala-L-Glu-Gly-L-His-NH2 (Ac-YVAEGH-NH2) [Ac-SEQ ID 44-NH2] | 
121% | Ac-L-Tyr-L-Pro-L-Ala-L-Glu-Gly-L-Pro-NH2 (Ac-YPAEGP-NH2) [Ac-SEQ ID 24-NH2] | 
122% | Ac-L-Tyr-L-Pro-L-Ala-L-Val-Gly-L-Pro-NH2 (Ac-YPAVGP-NH2) [Ac-SEQ ID 31-NH2] | 

The next lines start with the substance.

Substance | Activity of the AQP-3 promoter (%) (human AQP-3 promoter) | other results
Ac-L-Ser-L-Val-L-Ala-L-Val-Gly-L-Pro-NH2 (Ac-SVAVGP-NH2) [Ac-SEQ ID 17-NH2] | 121% | 
Ac-L-Tyr-L-Val-L-Ala-Gly-Gly-L-Gln-NH2 (Ac-YVAGGQ-NH2) [Ac-SEQ ID 42-NH2] | 123% | 
Ac-L-Ser-L-Pro-L-Ala-L-Glu-Gly-L-His-NH2 (Ac-SPAEGH-NH2) [Ac-SEQ ID 48-NH2] | 117% | 
Ac-L-Ser-L-Pro-L-Ala-L-Val-Gly-L-Pro-NH2 (Ac-SPAVGP-NH2) [Ac-SEQ ID 49-NH2] | 116% | 
Ac-L-Tyr-L-Pro-L-Ala-Gly-Gly-L-Pro-NH2 (Ac-YPAGGP-NH2) [Ac-SEQ ID 26-NH2] | 114% | 
Ac-L-Ser-L-Pro-L-Ala-Gly-Gly-L-His-NH2 (Ac-SPAGGH-NH2) [Ac-SEQ ID 45-NH2] | 120% | 
Ac-L-Ser-L-Val-L-Ala-L-Val-Gly-Gly-NH2 (Ac-SVAVGG-NH2) [Ac-SEQ ID 16-NH2] | 127% | 
Ac-L-Ser-L-Pro-L-Ala-L-Glu-Gly-L-Gln-NH2 (Ac-SPAEGQ-NH2) [Ac-SEQ ID 5-NH2] | 121% | 
Ac-L-Tyr-L-Val-L-Ala-Gly-Gly-L-Pro-NH2 (Ac-YVAGGP-NH2) [Ac-SEQ ID 35-NH2] | 150% | 
Ac-L-Ser-L-Val-L-Ala-L-Glu-Gly-L-Gln-NH2 (Ac-SVAEGQ-NH2) [Ac-SEQ ID 12-NH2] | 138% | 
Ac-L-Tyr-L-Pro-L-Ala-L-Glu-Gly-Gly-NH2 (Ac-YPAEGG-NH2) [Ac-SEQ ID 23-NH2] | 125% | 
Ac-L-Tyr-L-Val-L-Ala-L-Glu-Gly-L-Pro-NH2 (Ac-YVAEGP-NH2) [Ac-SEQ ID 32-NH2] | 135% | 
Ac-L-Tyr-L-Pro-L-Ala-Gly-Gly-Gly-NH2 (Ac-YPAGGG-NH2) [Ac-SEQ ID 25-NH2] | 132% | 
Ac-L-Ser-L-Val-L-Ala-Gly-Gly-Gly-NH2 (Ac-SVAGGG-NH2) [Ac-SEQ ID 38-NH2] | 156% | 
Ac-L-Ser-L-Val-L-Ala-L-Glu-Gly-Gly-NH2 (Ac-SVAEGG-NH2) [Ac-SEQ ID 46-NH2] | 119% | 
Ac-L-Tyr-L-Pro-L-Ala-L-Glu-Gly-L-Gln-NH2 (Ac-YPAEGQ-NH2) [Ac-SEQ ID 22-NH2] | 135% | % relative quantity AQP-3 mRNA (AQP-3 gene): 229%
Ac-L-Ser-L-Val-L-Ala-L-Val-Gly-L-Gln-NH2 (Ac-SVAVGQ-NH2) [Ac-SEQ ID 15-NH2] | 129% | % relative quantity AQP-3 mRNA (AQP-3 gene): 162%
Ac-L-Ser-L-Val-L-Ala-Gly-Gly-L-Pro-NH2 (Ac-SVAGGP-NH2) [Ac-SEQ ID 13-NH2] | 144% | 
Ac-L-Ser-L-Val-L-Ala-Gly-Gly-L-His-NH2 (Ac-SVAGGH-NH2) [Ac-SEQ ID 41-NH2] | 124% | 
Ac-L-Ser-L-Pro-L-Ala-L-Val-Gly-L-Gln-NH2 (Ac-SPAVGQ-NH2) [Ac-SEQ ID 39-NH2] | 133% | 
